In paper PMC10985270 (Acta Pharmaceutica Sinica. B, 2024):
Like-named read-outs stand apart in the source and are kept apart here.

Columns and labels:
hMAO-A = biological target: T1, hMAO-A (Homo sapiens, UniProt P21397); test: hMAO-A fluorescence bioassay; assay type: biochemical
T1 sequence (P21397 1-527): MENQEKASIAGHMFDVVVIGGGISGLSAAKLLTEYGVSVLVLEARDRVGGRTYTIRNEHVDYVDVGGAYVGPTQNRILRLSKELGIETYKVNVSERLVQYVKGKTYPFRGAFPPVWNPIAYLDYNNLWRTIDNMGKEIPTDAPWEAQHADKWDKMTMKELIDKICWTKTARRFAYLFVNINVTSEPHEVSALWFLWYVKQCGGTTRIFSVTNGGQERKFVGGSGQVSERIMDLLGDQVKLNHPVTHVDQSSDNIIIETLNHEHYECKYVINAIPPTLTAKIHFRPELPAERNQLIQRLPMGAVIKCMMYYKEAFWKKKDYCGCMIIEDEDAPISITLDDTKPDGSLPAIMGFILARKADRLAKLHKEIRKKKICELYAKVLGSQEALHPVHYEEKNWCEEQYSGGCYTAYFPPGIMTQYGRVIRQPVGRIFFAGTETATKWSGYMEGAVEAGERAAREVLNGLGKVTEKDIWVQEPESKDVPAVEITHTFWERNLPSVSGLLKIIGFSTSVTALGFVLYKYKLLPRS

hMAO-B [1] = biological target: T2, hMAO-B (Homo sapiens, UniProt P27338); test: Reversibility of hMAO-B inhibition; assay type: biochemical; settings: KYN 46 μmol/L
T2 sequence (P27338 1-520): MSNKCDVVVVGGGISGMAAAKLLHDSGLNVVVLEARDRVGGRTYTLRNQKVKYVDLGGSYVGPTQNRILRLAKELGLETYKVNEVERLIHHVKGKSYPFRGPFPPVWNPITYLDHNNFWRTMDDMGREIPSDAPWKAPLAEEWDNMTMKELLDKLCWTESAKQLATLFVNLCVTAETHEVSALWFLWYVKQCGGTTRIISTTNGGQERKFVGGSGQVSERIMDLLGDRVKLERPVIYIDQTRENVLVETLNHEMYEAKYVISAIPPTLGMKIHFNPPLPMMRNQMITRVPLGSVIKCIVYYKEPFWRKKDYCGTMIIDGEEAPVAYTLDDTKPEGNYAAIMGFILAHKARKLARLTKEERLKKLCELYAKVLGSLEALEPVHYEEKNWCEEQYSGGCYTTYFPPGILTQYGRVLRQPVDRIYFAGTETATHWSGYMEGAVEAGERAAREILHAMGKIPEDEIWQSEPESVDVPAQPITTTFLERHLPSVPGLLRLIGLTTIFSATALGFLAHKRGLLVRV

SH-SY5Y cells = test: Neuroprotection against 6-OHDA-induced toxicity in SH-SY5Y cells; assay type: cell-based; settings: Homo sapiens, read-out: EC50, neuroprotective effect
hMAO-B [2] = biological target: T2, hMAO-B; test: hMAO-B fluorescence bioassay; assay type: biochemical; settings: for SI: selectivity index for the MAO-B isoform: ratio IC50(MAO-A)/IC50(MAO-B)
hMAO-B [3] = biological target: T2, hMAO-B; test: At-line nanofractionation hMAO-B screening of mixed standards; assay type: biochemical; settings: mixed standards 100 μmol/L

Compound | IC50 (hMAO-A) | EC50 (SH-SY5Y cells) | IC50 (hMAO-B [2]) | SI: selectivity index for the MAO-B isoform (hMAO-B [2]) | other results
CCCC[C@@H]1OC(=O)C2=CCCC[C@H]21 [Neocnidilide] | 102 ± 13.1 µM | 1.16 µM | 0.494 ± 0.132 µM | 207.362 | Reversibility of hMAO-B inhibition (hMAO-B [1]): reversible; Inhibitory activity against hMAO-B (in words) (hMAO-B [2]; phthalides): highest activity; SI: selectivity index for the MAO-B isoform (hMAO-B [2]; listed as neocnidilide): 207
COc1cc(C=O)ccc1O [Vanillin] | 86.1 ± 15.3 µM | – | 45.7 ± 2.6 µM | 1.884 | –
O=C(/C=C/c1ccc(O)c(O)c1)O[C@@H]1C[C@](O)(C(=O)O)C[C@@H](O)[C@H]1O [Chlorogenic acid] | 82.4 ± 14.6 µM | – | 69.6 ± 14.4 µM | – | –
O=C(O)/C=C/c1ccc(O)c(O)c1 [Caffeic acid] | 60.9 ± 5.85 µM | – | – | 1.840 | IC50 (hMAO-B [2]; Inhibition (IC50) hMAO-B, Table 1): 33.1 ± 7.57 µM
C[C@H](NCc1ccc(OCc2cccc(F)c2)cc1)C(N)=O [Safinamide, reference compound] | – | 1.08 µM | – | – | Reversibility of hMAO-B inhibition (hMAO-B [1]): reversible
C#CCN[C@@H]1CCc2ccccc21 [Rasagiline] | – | 0.896 µM | – | – | Activity peak in bioactivity chromatogram (hMAO-B [3]): displayed inhibitory activity
COc1ccc(-c2coc3cc(O)ccc3c2=O)cc1O [Calycosin, reference compound] | – | – | 24 µM | – | Activity peak in bioactivity chromatogram (hMAO-B [3]): displayed inhibitory activity
